Read-outs that look alike come from different tables or passages of the source.
Legend:
Human CB2 = Human CB2 (Homo sapiens, UniProt P34972); test: Radioligand competitive binding, [3H]CP55940, HEK293 cells; set-up: expressed in transfected cells; settings: for Human CB2 (%) primary radioligand competitive binding: ligand 10 μM, HEK293 cells
Experimental: HEK293 cells and CHO cells were used in the radioligand binding assay while tsA-201 cells were used in the electrophysiological study. Human CB2, human 5-HT2A, rat 5-HT2C used in the binding studies were cloned into pcDNA5.0FRT and cell lines were made using the FlpIn system from Invitrogen. tsA-201 cell culture and transient calcium channel transfection were performed as described previously. In brief, tsA-201 cells were transfected using the calcium phosphate method. Cav3.1, 3.2 and 3.3 α1 subunits were transfected individually with yellow fluorescent protein as a transfection marker.
CB1 and CB2 radioligand binding data were obtained using National Institute of Mental Health (NIMH) Psychoactive Drug Screening Program (PDSP) resources as described earlier. Compounds were screened in a competitive binding experiment using, respectively, membrane fractions prepared from rat brain homogenate expressing CB1 receptor and HEK293 cells expressing the human CB2 receptor. Experiments were conducted at a range of different concentrations and in duplicate. The competition binding experiment for CB1 and CB2 was performed in 96 well plates containing Standard Binding Buffer (50 mM Tris HCl, 1 mM EDTA, 3 mM MgCl2, 5 mg/ml fatty acid-free BSA, pH 7.4). The radioligand was [^3H]CP55940, and the reference compound was CP55940. A solution of the compound to be tested was prepared as a 1 mg/ml stock in DMSO and then diluted in Standard Binding Buffer by serial dilution. Radioligand was diluted to five times the assay concentration in Standard Binding Buffer. Aliquots (50 μl) of radioligand were dispensed into the wells of a 96-well plate containing 100 μl of Standard Binding Buffer. Then, duplicate 50-μl aliquots of the test and reference compound dilutions were added. Finally, crude membrane fractions of cells were resuspended in 3 ml of chilled Standard Binding Buffer and homogenized by several passages through a 26 gauge needle, then 50 μl were dispensed into each well. The 250-μl reactions were incubated at room temperature for 1.5 hours, and then harvested by rapid filtration onto Whatman GF/B glass fiber filters pre-soaked with 0.3% polyethyleneimine using a 96-well Brandel harverster. Four rapid 500-μl washes were performed. Filters were placed in 6-ml scintillation tubes and allowed to dry overnight. Bound radioactivity was harvested onto 0.3% polyethyleneimine-treated, 96-well filter mats using a 96-well Filtermate harvester. The filter mats were dried, then scintillant was melted onto the filters and the radioactivity retained on the filters counted in a Microbeta scintillation counter. Raw data (dpm) representing total radioligand binding (i.e., specific + non-specific binding) were plotted as a function of the logarithm of the molar concentration of the competitor (i.e., test or reference compound). Non-linear regression of the normalized (i.e., percent radioligand binding compared to that observed in the absence of test or reference compound) raw data was performed in Prism 4.0 (GraphPad Software) using the built-in three parameter logistic model describing ligand competition binding to radioligand-labeled sites: y = bottom + [(top-bottom)/(1 + 10 × -logIC50)] where bottom equals the residual radioligand binding measured in the presence of 10 μM reference compound (i.e., non-specific binding) and top equals the total radioligand binding observed in the absence of competitor. The log IC50 (i.e., the log of the ligand concentration that reduces radioligand binding by 50%) is thus estimated from the data and used to obtain the Ki by applying the Cheng-Prusoff approximation: Ki = IC50/(1 + [ligand]/KD) where [ligand] equals the assay radioligand concentration and KD equals the affinity constant of the radioligand for the target receptor.

Human CB1 = Human CB1 (Homo sapiens, UniProt P21554); test: GTPγ[35S] functional assay, CHO cell membrane extracts; set-up: Emax: dose or concentration left out as unconfirmed
Experimental: Functional activity was evaluated using GTPγ[^35S] assay in CHO cell membrane extracts expressing recombinant human CB1 or CB2 receptors as we previously described [51]. Compounds were solubilized in 100% DMSO at a concentration of 10 mM within 4 hours of the first testing session. A predilution for the dose response curve was performed in 100% DMSO and then diluted 100 fold in assay buffer at a concentration 2 fold higher than the concentration to be tested. […] Membranes were mixed with GDP diluted in assay buffer to give 30 μM solution (volume:volume) and incubated for at least 15 min on ice. In parallel, GTPγ[^35S] (GE Healthcare, Catalogue number SJ1308) were mixed with the beads (PVT-WGA (GE Healthcare, RPNQ001)), diluted in assay buffer at 50 mg/ml (0.5 mg/10 μl) (volume:volume) just before starting the reaction. The following reagents were successively added in the wells of an Optiplate (Perkin Elmer): 50 μl of ligand, 20 μl of the membranes:GDP mix, 10 μl of assay buffer for agonist testing, and 20 μl of the GTPγ[^35S]:beads mix. The plates were covered with a topseal, shacked on an orbital shaker for 2 min, and then incubated for 1 hour at room temperature. Then the plates were centrifuged for 10 min at 2000 rpm and counted for 1 min/well with a PerkinElmer TopCount reader. […] For replicate determinations, the maximum variability tolerated in the test was of ± 20% around the average of the replicates.

N-type calcium channels = target: T1, N-type calcium channels (Homo sapiens, UniProt Q00975); test: Whole-cell patch-clamp on N-type calcium channels; type: cell-based; settings: n = 5, read-out: effect on N-type calcium channels (inhibition)
T1 construct: expressed in transfected cells; host or cells: tsA-201 cells (general electrophysiology statement)
T1 sequence (P54289 25-956): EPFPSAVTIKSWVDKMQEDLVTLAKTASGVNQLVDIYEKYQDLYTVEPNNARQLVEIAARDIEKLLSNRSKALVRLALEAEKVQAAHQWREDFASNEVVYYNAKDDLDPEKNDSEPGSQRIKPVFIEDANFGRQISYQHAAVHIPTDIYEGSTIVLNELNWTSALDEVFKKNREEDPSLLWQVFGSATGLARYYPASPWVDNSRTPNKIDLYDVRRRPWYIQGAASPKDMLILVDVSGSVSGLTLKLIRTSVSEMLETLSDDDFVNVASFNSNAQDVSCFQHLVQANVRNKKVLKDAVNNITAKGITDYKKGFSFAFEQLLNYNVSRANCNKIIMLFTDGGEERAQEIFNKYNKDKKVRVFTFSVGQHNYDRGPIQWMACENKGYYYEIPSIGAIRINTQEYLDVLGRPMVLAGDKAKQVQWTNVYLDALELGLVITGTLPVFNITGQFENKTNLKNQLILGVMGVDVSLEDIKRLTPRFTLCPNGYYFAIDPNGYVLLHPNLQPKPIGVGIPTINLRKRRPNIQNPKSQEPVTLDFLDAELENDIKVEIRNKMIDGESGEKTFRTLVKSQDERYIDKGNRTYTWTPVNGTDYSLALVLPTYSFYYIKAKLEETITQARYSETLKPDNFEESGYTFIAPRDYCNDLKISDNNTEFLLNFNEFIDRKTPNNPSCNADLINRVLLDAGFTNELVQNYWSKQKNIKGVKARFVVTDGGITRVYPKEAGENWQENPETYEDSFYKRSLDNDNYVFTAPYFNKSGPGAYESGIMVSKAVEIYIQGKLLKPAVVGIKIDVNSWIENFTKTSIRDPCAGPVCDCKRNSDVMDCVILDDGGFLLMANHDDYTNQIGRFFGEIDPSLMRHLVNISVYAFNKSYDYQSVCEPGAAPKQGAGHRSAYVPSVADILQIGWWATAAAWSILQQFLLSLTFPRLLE
T1 sequence (Q00975 whole entry): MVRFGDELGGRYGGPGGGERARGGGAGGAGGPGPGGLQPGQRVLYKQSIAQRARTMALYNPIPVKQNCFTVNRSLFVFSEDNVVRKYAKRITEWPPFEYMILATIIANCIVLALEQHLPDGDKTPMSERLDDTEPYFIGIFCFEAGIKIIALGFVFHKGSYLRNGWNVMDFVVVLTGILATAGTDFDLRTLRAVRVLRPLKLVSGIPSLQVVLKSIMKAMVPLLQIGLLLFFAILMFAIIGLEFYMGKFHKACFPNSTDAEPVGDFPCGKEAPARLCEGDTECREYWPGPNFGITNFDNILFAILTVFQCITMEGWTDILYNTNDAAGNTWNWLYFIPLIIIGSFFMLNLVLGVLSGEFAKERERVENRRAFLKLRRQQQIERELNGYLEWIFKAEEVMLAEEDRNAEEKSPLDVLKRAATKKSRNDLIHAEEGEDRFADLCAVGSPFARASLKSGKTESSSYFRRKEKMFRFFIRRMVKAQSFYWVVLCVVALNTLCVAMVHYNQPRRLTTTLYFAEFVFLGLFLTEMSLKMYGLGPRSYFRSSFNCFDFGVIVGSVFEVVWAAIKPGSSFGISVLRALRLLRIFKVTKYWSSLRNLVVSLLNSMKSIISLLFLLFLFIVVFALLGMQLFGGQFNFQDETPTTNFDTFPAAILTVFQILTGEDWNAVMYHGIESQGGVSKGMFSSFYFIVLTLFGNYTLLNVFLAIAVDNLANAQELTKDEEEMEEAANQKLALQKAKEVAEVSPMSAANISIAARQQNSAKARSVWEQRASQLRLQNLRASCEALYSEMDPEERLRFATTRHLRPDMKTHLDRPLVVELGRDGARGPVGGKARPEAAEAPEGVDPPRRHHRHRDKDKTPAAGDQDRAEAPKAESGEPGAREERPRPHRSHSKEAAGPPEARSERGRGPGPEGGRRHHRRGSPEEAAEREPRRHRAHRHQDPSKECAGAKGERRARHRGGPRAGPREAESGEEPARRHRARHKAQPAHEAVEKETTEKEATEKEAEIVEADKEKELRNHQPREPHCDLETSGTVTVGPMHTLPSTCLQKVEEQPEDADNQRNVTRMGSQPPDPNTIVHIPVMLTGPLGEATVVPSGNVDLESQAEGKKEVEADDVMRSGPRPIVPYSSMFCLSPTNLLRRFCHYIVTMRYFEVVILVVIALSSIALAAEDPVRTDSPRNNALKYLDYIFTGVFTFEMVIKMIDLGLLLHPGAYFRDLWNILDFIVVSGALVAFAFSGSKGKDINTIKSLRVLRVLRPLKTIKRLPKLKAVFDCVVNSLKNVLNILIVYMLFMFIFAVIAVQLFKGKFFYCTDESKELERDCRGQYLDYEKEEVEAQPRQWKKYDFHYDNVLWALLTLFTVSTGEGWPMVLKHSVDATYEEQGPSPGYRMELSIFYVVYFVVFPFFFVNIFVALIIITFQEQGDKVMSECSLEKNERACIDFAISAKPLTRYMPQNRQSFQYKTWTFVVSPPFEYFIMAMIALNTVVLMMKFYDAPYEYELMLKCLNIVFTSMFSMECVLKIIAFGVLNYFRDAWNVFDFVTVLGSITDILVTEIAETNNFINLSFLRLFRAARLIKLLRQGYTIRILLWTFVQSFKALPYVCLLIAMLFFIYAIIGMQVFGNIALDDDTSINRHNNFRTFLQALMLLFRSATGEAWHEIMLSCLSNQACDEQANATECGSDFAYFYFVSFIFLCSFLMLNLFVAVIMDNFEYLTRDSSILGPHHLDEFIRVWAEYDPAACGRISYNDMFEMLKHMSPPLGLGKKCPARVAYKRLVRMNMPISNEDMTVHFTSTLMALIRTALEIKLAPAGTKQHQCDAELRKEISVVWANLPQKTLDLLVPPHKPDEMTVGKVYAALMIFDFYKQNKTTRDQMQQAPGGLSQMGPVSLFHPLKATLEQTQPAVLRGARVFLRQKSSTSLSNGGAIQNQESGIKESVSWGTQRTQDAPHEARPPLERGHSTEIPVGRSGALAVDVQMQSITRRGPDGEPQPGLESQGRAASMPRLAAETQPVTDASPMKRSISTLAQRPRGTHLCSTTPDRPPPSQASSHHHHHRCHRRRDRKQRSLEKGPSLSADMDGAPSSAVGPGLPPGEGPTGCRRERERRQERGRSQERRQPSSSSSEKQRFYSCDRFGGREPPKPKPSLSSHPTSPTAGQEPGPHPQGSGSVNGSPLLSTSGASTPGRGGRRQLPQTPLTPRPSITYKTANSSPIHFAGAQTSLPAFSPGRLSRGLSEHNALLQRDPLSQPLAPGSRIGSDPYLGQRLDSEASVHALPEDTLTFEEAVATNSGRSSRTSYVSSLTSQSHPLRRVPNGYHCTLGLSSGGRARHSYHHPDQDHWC
T1 sequence (P54289 957-1103): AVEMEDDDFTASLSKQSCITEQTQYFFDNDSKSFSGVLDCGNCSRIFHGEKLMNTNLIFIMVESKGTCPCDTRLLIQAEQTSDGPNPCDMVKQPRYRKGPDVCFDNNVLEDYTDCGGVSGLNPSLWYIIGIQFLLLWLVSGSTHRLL
T1 sequence (Q02641 whole entry, further chain): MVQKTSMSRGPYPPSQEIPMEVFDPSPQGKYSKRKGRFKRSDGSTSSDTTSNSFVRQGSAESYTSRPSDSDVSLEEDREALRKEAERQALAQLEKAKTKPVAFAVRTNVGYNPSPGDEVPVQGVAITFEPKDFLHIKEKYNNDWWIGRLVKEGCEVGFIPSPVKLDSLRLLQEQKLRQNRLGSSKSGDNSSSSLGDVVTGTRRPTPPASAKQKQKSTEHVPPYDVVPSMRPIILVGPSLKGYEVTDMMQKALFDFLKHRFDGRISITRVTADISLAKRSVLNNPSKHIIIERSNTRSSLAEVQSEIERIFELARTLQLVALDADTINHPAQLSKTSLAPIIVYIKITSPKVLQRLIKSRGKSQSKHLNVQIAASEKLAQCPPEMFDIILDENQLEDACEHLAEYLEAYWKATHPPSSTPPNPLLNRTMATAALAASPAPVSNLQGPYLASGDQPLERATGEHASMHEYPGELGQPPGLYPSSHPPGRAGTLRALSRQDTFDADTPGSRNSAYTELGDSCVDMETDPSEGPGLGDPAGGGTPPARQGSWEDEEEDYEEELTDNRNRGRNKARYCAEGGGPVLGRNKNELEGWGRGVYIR

Sequence of Human CB2 (P34972 whole entry): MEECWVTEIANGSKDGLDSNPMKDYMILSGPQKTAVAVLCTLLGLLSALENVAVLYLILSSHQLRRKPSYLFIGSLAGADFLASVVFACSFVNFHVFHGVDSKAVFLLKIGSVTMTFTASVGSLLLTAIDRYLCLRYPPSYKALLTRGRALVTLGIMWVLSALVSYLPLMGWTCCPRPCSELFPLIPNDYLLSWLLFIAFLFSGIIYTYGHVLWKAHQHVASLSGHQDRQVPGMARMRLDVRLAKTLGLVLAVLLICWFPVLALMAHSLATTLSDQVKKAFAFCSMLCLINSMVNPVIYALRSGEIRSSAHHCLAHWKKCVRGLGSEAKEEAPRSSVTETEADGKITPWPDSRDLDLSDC
Sequence of Human CB1 (P21554 whole entry): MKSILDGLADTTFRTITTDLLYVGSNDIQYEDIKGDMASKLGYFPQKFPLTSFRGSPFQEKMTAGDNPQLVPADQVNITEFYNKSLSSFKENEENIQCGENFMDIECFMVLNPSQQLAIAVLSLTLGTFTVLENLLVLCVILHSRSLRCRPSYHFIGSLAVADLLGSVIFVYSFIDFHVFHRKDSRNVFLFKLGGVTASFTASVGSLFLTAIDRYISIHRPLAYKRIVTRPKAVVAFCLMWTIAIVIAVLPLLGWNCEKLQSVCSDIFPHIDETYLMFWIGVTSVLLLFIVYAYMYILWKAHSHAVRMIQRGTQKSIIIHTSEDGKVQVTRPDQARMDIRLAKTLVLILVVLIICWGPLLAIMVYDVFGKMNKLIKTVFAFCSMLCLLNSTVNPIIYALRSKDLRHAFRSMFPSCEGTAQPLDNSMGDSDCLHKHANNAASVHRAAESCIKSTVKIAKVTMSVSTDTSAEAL

| Structure (SMILES) | Ki (Human CB2; NA: not active at 1 μM, read-out: Mean Ki Human CB2) [nM] | Human CB2 (%) primary radioligand competitive binding (Human CB2) [%] | EC50 (Human CB1) [nM] | Emax (Human CB1; read-out: GTPγ[35S] functional assays Human CB1 Emax) [%] | inhibition at 10 µM (N-type calcium channels) [%] | Ki (Human CB2) [nM] |
| --- | --- | --- | --- | --- | --- | --- |
| CCCCCn1c2ccc(C(=O)N3CCCCC3)cc2c2ccc(OC)cc21 [NMP-4] | 7.5 ± 0.7 | 104.4 | 118 ± 4 | 30.4 | – | – |
| CCCCCn1c2c(c3ccc(OC)cc31)CN(C(=O)c1ccccc1)CC2 [NMP-144] | – | 90.6 | – | – | 20 | 706 ± 110 |

— publication PMC3250956, “Functional characterization and analgesic effects of mixed cannabinoid receptor/T-type channel ligands” (Molecular Pain, 2011)
